Source: patent US10898481B2 (priority 2018, dated 2021)

Columns and labels:
[1] = target: hA2b/CHO (Homo sapiens (Human), UniProt P29275); experiment: cAMP inhibition assay in hA2b/CHO cells, 10 μM adenosine; assay type: cell-based; conditions: read-out: cAMP & FLIPR IC50 (nM) hA2b;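 note: cells exposed to compound 30 min at 37 °C, then stimulated with adenosine a further 30 min, cAMP read after 60 min at room temperature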
Experimental: (§1) hA2a/CHO, hA2b/CHO, hA3/CHO and mA2a/CHO (Genscript) were plated at 5×10^3 cells/well into 384-well polystyrene plates at the day of experiment. Compounds were pre-incubated with cells for 30 min at 37° C., 5% CO2. Then 10 μM adenosine was added to the cells and incubated for 30 min at 37° C., 5% CO2. Detection reagent (CISBIO) was added and the plates were incubated for 60 min at room temperature. The signal was captured by Envision.

[2] = target: hADORA1/CHO (hA1 expressing) cells (Homo sapiens (Human), UniProt P30542); experiment: cell-based; conditions: FLIPR inhibition, 10 μM adenosine, read-out: cAMP & FLIPR IC50 (nM) hA1
Sequence of hADORA1/CHO (hA1 expressing) cells (P30542 whole entry): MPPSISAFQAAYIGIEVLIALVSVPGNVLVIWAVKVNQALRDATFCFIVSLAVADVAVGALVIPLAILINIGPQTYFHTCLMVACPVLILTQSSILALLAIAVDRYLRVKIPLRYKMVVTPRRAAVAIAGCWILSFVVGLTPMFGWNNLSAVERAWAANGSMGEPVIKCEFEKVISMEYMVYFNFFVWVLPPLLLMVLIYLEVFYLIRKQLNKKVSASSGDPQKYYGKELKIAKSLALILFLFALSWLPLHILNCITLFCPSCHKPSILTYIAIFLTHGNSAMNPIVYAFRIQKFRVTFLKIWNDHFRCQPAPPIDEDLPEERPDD
Experimental: hADORA1/CHO (hA1 expressing) cells (Genscript) were plated at 1×10^4 cells/well into 384-well polystyrene plates one day before starting the experiment. On the day of experiment, the supernatant was discard and replaced with 40 μL of dye (FLIPR calcium 5 Assay Kit) per well and the plates were incubated for 60 mins at 37° C. plus 5% CO2. Then testing compounds were added at different concentrations for FLIPR™ inhibition assay. After a 400s incubation with compound, 10 μM adenosine was added into the cells, and the signal was captured by FLIPR.

[3] = target: hA2a/CHO (Homo sapiens (Human), UniProt P29274); experiment: cAMP inhibition assay in hA2a/CHO cells, 10 μM adenosine; assay type: cell-based; conditions: read-out: cAMP & FLIPR IC50 (nM) hA2a;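 note: compounds added to cells 30 min ahead of adenosine, then a further 30 min at 37 °C with adenosine before cAMP detection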
Sequence of hA2a/CHO (P29274 whole entry): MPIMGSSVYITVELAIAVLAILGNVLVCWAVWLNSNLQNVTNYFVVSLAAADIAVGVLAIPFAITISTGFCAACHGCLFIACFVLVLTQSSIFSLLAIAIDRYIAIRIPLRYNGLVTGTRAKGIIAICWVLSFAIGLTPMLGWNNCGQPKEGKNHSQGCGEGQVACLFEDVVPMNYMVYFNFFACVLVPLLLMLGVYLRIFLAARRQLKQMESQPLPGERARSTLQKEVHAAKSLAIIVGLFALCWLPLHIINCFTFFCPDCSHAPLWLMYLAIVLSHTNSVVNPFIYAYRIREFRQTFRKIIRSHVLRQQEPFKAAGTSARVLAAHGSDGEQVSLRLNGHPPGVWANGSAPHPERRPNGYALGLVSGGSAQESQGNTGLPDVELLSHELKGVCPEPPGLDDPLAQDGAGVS
Experimental: as §1

[4] = target: mA2a/CHO (Mus musculus (Mouse), UniProt Q60613); experiment: cAMP inhibition assay in mA2a/CHO cells, 10 μM adenosine; assay type: cell-based; conditions: read-out: cAMP & FLIPR IC50 (nM) mA2a;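 note: compounds preincubated 30 min at 37 °C before the adenosine challenge, then 30 min further stimulation, readout after 60 min detection reagent incubation at room temperature in 384-well plates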
Sequence of mA2a/CHO (Q60613 whole entry): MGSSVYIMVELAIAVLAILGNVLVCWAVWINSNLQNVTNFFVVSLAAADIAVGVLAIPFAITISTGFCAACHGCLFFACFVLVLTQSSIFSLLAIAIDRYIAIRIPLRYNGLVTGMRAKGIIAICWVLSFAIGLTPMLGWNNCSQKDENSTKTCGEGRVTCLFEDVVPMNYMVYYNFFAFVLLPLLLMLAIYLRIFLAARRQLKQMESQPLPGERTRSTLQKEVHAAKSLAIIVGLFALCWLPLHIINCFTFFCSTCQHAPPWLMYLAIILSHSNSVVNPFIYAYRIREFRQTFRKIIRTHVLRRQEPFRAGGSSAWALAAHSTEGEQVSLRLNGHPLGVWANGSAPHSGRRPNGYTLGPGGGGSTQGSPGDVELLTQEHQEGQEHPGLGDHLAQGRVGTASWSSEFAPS
Experimental: as §1

Sequence of hA2b/CHO (P29275 whole entry): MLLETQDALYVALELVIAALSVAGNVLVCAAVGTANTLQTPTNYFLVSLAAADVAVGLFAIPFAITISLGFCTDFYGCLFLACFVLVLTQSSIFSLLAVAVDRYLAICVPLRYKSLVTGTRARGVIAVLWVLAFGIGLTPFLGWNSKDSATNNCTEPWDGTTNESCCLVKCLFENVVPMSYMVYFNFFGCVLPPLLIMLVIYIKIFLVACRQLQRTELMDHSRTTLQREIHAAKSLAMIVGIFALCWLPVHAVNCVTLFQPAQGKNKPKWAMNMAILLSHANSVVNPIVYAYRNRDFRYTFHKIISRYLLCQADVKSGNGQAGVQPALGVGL

Compound	IC50 [1]	IC50 [2]	IC50 [3]	IC50 [4]
CN1CCC[C@@H]1CNC(=O)c1nc(-c2ccc3ncn(C)c3c2)c(-n2nccn2)nc1N [Example 131, (R)-3-amino-6-(1-methyl-1H-benzo[d]imidazol-6-yl)-N-((1-methylpyrrolidin-2-yl)methyl)-5-(2H-1,2,3-triazol-2-yl)pyrazine-2-carboxamide]	≥ 10000 nM	10000 nM	332 nM	2700 nM
Cc1cnc2ccc(-c3nc(C(=O)NCC4(C)CCOC4)c(N)nc3-c3ncco3)cn12 (single isomer, unassigned; isomer 1) [Example 251, 3-amino-6-(3-methylimidazo[1,2-a]pyridin-6-yl)-N-((3-methyltetrahydrofuran-3-yl)methyl)-5-(oxazol-2-yl)pyrazine-2-carboxamide (isomer 1)]	657 nM	425 nM	4.7 nM	34 nM
Cc1cnc2ccc(-c3nc(C(=O)NC[C@H](C)O)c(N)nc3-c3ncco3)cn12 [Example 146, (S)-3-amino-N-(2-hydroxypropyl)-6-(3-methylimidazo[1,2-a]pyridin-6-yl)-5-(oxazol-2-yl)pyrazine-2-carboxamide]	256 nM	10000 nM	8.5 nM	101 nM
Cc1cnc2ccc(-c3nc(C(=O)N[C@@H]4CCN(C)C4)c(N)nc3-c3ccc(F)cc3)cn12 [Example 144, (R)-3-amino-5-(4-fluorophenyl)-6-(3-methylimidazo[1,2-a]pyridin-6-yl)-N-(1-methylpyrrolidin-3-yl)pyrazine-2-carboxamide]	1410 nM	10000 nM	4.6 nM	61 nM
Cc1cnc2ccc(-c3nc(C(=O)NC[C@H]4CC(F)(F)CN4C)c(N)nc3-c3ncco3)cn12 [Example 162, (R)-3-amino-N-((4,4-difluoro-1-methylpyrrolidin-2-yl)methyl)-6-(3-methylimidazo[1,2-a]pyridin-6-yl)-5-(oxazol-2-yl)pyrazine-2-carboxamide]	147 nM	794 nM	0.71 nM	8.12 nM
Cc1cnc2ccc(-c3nc(C(=O)NCc4cccc(N5CCN(C)CC5)n4)c(N)nc3-c3ncco3)cn12 [Example 112, 3-amino-6-(3-methylimidazo[1,2-a]pyridin-6-yl)-N-((6-(4-methylpiperazin-1-yl)pyridin-2-yl)methyl)-5-(oxazol-2-yl)pyrazine-2-carboxamide]	502 nM	10000 nM	1.3 nM	18 nM
Nc1nc(-c2ncco2)c(-c2ccc3nccn3c2)nc1C(=O)NCc1cscn1 [Example 45, 3-amino-6-[imidazo[1,2-a]pyridin-6-yl]-5-(1,3-oxazol-2-yl)-N-[(1,3-thiazol-4-yl)methyl]pyrazine-2-carboxamide]	912 nM	10000 nM	94 nM	566 nM
Cc1cnc2ccc(-c3nc(C(=O)NCC4CN(C)CCO4)c(N)nc3-c3ccc(F)cc3)cn12 (single isomer, unassigned; isomer 1) [Example 246, 3-amino-5-(4-fluorophenyl)-6-(3-methylimidazo[1,2-a]pyridin-6-yl)-N-((4-methylmorpholin-2-yl)methyl) pyrazine-2-carboxamide (isomer 1)]	1100 nM	44 nM	17 nM	67 nM
CO[C@H]1C[C@H](NC(=O)c2nc(-c3ccc4ncc(C)n4c3)c(-c3ncco3)nc2N)C1 [Example 151, 3-amino-N-((1r,3r)-3-methoxycyclobutyl)-6-(3-methylimidazo [1,2-a]pyridin-6-yl)-5-(oxazol-2-yl) pyrazine-2-carboxamide]	193 nM	10000 nM	0.8 nM	12 nM
